How the values were obtained:
Format in all cases: in vivo
[1] = tested on: ragweed (Ambrosia artemisiifolia); assay: Test A: field test, percent weed control of ragweed; settings: seven weeks after treatment
Source text: (§1) In test A, soybeans, peanuts, lima beans, green beans and squash were planted in a field infested with the following weed seeds: crabgrass (Digitaria sanquinalis), foxtails (Setaria spp.), barnyardgrass (Echinochloa crusgalli), pigweed (Amaranthus spp.), ragweed (Ambrosia artemisiifolia), velvetleaf (Abutilon theophrasti), purslane (Portulaca oleracea) and flower-of-an-hour (Hibiscus trionum). A 50% wettable powder formulation of 2-(4-chloro-2-fluorophenyl)-4,5,6,7-tetrahydro-2H-isoindole-1,3-dione was applied in the form of an aqueous suspension at rates of 0.125, 0.25, 0.5 and 1.0 kg/ha, each treatment replicated twice. The plots were rated for percent weed control and crop response seven weeks after treatment. Crop response was expressed on a scale of 0 = no injury to 10 = complete kill.

[2] = tested on: crabgrass (Digitaria sanquinalis); assay: Test A: field test, percent weed control of crabgrass; settings: seven weeks after treatment
Source text: as §1

[3] = tested on: purslane (Portulaca oleracea); assay: Test A: field test, percent weed control of purslane; settings: seven weeks after treatment
Source text: as §1

green beans = assay: Test A: field test, crop response of green beans; settings: seven weeks, 0 = no injury to 10 = complete kill
Source text: as §1

O=C1C2=C(CCCC2)C(=O)N1c1ccc(Cl)cc1F [Treatment I, 2-(4-chloro-2-fluorophenyl)-4,5,6,7-tetrahydro-2H-isoindole-1,3-dione] was tested, and the “% Control, Ragweed” value ([1]; 0.125 kg/ha) was 90%, the “% Control, Ragweed” value ([1]; 0.25 kg/ha) was 99% and the “% Control, Ragweed” value ([1]; 0.50 kg/ha) was 99%. The “% Control, Ragweed” value ([1]; 1.00 kg/ha) was 100%, the “% Control, Crabgrass” value ([2]; 0.125 kg/ha) was 60% and the “% Control, Crabgrass” value ([2]; 0.25 kg/ha) was 94%. The “% Control, Crabgrass” value ([2]; 0.50 kg/ha) was 99%, the “% Control, Crabgrass” value ([2]; 1.00 kg/ha) was 99% and the “% Control, Purslane” value ([3]; 0.125 kg/ha) was 82%. For the same molecule, the “% Control, Purslane” value ([3]; 0.25 kg/ha) was 97%, the “% Control, Purslane” value ([3]; 0.50 kg/ha) was 100% and the “% Control, Purslane” value ([3]; 1.00 kg/ha) was 100%. The “Crop Response, Green beans” value (green beans; 0.125 kg/ha) was 2, the “Crop Response, Green beans” value (green beans; 0.25 kg/ha) was 2.5 and the “Crop Response, Green beans” value (green beans; 0.50 kg/ha) was 8. For the same molecule, the “Crop Response, Green beans” value (green beans; 1.00 kg/ha) was 8.5.
